Read-outs that look alike come from different tables or passages of the source.
Key:
[1] = system: S. aureus; assay: MIC against S. aureus strains; format: cell-based
[2] = system: S. haemolyticus ATCC 29970; assay: MIC against S. haemolyticus; format: cell-based; settings: Staphylococcus haemolyticus, ATCC29970
[3] = system: E. faecium; assay: MIC against E. faecium strains; format: cell-based
[4] = system: K. pneumoniae ATCC700603; assay: MIC against K. pneumoniae; format: cell-based; settings: Klebsiella pneumoniae; K. pneumoniae ATCC700603; read-out: MIC
[5] = system: A. baumanii ATCC17961; assay: MIC against A. baumanii; format: cell-based; settings: Acinetobacter baumannii; A. baumanii ATCC17961; read-out: MIC
[6] = system: E. aerogenes ATCC35029; assay: MIC against E. aerogenes; format: cell-based; settings: Klebsiella aerogenes; E. aerogenes ATCC35029; read-out: MIC
[7] = system: E. coli ATCC25922; assay: MIC against E. coli; format: cell-based; settings: Escherichia coli; E. coli ATCC25922; read-out: MIC
[8] = system: C. difficile strains; settings: cited from earlier work
[9] = system: Bifidobacterium longum HM-846; settings: cited from earlier work
[10] = system: C. difficile ATCC 43255; assay: Determination of minimal-inhibitory concentrations (microdilution), C. difficile ATCC 43255; format: cell-based, Clostridioides difficile; settings: Clostridioides difficile
[11] = system: THP-1 cells; assay: Lactate dehydrogenase (LDH) cytotoxicity assay; format: cell-based, human; settings: Homo sapiens
[12] = Enterococcus faecium, read-out: MIC

Cc1ncc([N+](=O)[O-])n1CCO [MTZ, metronidazole]
> 256 µg/mL: MIC ([1]; Staphylococcus aureus) | MIC ([1]; Staphylococcus aureus, ATCC27660) | MIC ([1]; Staphylococcus aureus, ATCC29213) | MIC [2]
> 16 µg/mL: MIC [3, 12]
> 128 µg/mL: MIC ([3]; Enterococcus faecium, NCTC7171, E. faecium NCTC 7171, read-out: MIC) | MIC [4] | MIC [5] | MIC [6] | MIC [7]
>256 µg/mL: MIC ([1]; S. aureus VRS2)
4 µg/mL: MIC ([8]; C. difficile 26675, resistant to MTZ) | MIC ([8]; strain RMA26675) | MIC ([8]; strain RMA27173)
>16 µg/mL: MIC ([3]; E. faecium 106 (Van R))
0.05 µg/mL: MIC [9]
0.5 µg/mL: IMIC50 (101 strains) ([8]; 101 C. difficile strains) | MIC ([8]; C. difficile 23828, resistant to FDX) | MIC ([8]; C. difficile 24531, resistant to VAN) | MIC ([8]; C. difficile BAA-1803) | MIC ([8]; C. difficile BAA-1870) | MIC50 ([8]; C. difficile strains of Table 4) | MIC ([8]; strain BAA-1803) | MIC ([8]; strain BAA-1870) | MIC ([8]; strain HM-745) | MIC ([8]; strain HM-747) | MIC ([8]; strain NR-13430) | MIC ([8]; strain NR-13431) | MIC ([8]; strain NR-13433) | MIC ([8]; strain NR-13434) | MIC ([8]; strain NR-13435) | MIC ([8]; strain NR-13436) | MIC ([8]; strain NR-13437) | MIC ([8]; strain NR-13438) | MIC ([8]; strain NR-13553) | MIC ([8]; strain NR-32883) | MIC ([8]; strain NR-32884) | MIC ([8]; strain NR-32885) | MIC ([8]; strain NR-32886) | MIC ([8]; strain NR-32888) | MIC ([8]; strain NR-32890) | MIC ([8]; strain NR-32892) | MIC ([8]; strain NR-32897) | MIC ([8]; strain NR-32903) | MIC ([8]; strain NR-32904) | MIC ([8]; strain NR-49277) | MIC ([8]; strain NR-49278) | MIC ([8]; strain NR-49282) | MIC ([8]; strain NR-49283) | MIC ([8]; strain NR-49284) | MIC ([8]; strain NR-49285) | MIC ([8]; strain NR-49287) | MIC ([8]; strain NR-49288) | MIC ([8]; strain NR-49289) | MIC ([8]; strain NR-49293) | MIC ([8]; strain NR-49295) | MIC ([8]; strain NR-49296) | MIC ([8]; strain NR-49297) | MIC ([8]; strain NR-49299) | MIC ([8]; strain NR-49300) | MIC ([8]; strain NR-49301) | MIC ([8]; strain NR-49303) | MIC ([8]; strain NR-49304) | MIC ([8]; strain NR-49306) | MIC ([8]; strain NR-49307) | MIC ([8]; strain NR-49308) | MIC ([8]; strain NR-49311) | MIC ([8]; strain NR-49312) | MIC ([8]; strain NR-49313) | MIC ([8]; strain NR-49314) | MIC ([8]; strain NR-49315) | MIC ([8]; strain NR-49316) | MIC ([8]; strain NR-49317) | MIC ([8]; strain NR-49319) | MIC ([8]; strain NR-49320) | MIC ([8]; strain NR-49321) | MIC ([8]; strain NR-49325) | MIC ([8]; strain NR-49326) | MIC ([8]; strain NR-49327) | MIC ([8]; strain RMA23691) | MIC ([8]; strain RMA23828) | MIC ([8]; strain RMA24531) | MIC ([8]; strain RMA27081)

O=[N+]([O-])c1cnc(-c2nc(-c3ccc(OC4CCCC4)cc3)no2)[nH]1 [Compound 57, 3-(4-(Cyclopentyloxy)phenyl)-5-(4-nitro-1H-imidazol-2-yl)-1,2,4-oxadiazole]
64 µg/mL: MIC ([1]; Staphylococcus aureus, S. aureus VRS1, read-out: MIC)
0.25 µg/mL: MIC ([10]; ATCC43255, C. difficile ATCC43255, read-out: ATCC43255 MIC) | MIC ([10]; ATCC43255, C. difficile ATCC43255, read-out: MIC) | MIC ([10]; ATCC43255, Table 1, strain ATCC 43255, read-out: MIC C. difficile) | MIC ([10]; ATCC43255, strain ATCC43255, read-out: MIC)
> 128 µg/mL: MIC [4] | MIC [5] | MIC [6] | MIC [7] | IC50 ([11]; THP-1, 24 h, read-out: LDH (IC50))
0.125 µg/mL: MIC ([10]; ATCC43255, 24 h, C. difficile ATCC 43255, 24 h, read-out: MIC (μg/mL) 24 h)
> 50 µg/mL: IC50 ([11]; THP-1, read-out: toxicity IC50 (LDH assay))
128 µg/mL: MIC ([3]; E. faecium 106 (Van R)) | MIC [3, 12]
32 µg/mL: MIC ([1]; Staphylococcus aureus, S. aureus VRS2, read-out: MIC) | MIC ([2]; S. haemolyticus ATCC 29970, read-out: MIC)
